Assay [1] has as its target Angiotensin II receptor type 1 (Oryctolagus cuniculus) (UniProt P34976). The assay is described as follows: Antagonism of angiotensin II induced contraction of isolated rabbit aorta.
Assay [2] addresses T1, Angiotensin II receptor (AT-1) type-1 (Rattus norvegicus, UniProt P29089+P25095).
T1 sequence (P29089 whole entry): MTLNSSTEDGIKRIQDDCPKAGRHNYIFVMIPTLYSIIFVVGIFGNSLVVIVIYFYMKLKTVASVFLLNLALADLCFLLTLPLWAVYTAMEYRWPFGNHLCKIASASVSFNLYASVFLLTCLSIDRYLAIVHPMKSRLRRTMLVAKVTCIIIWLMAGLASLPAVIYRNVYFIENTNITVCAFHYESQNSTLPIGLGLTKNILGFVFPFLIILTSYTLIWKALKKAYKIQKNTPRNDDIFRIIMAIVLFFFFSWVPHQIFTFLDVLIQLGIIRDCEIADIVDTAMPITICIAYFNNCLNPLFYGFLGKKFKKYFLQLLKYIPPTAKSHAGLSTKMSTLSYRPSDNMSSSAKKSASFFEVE
T1 sequence (P25095 whole entry): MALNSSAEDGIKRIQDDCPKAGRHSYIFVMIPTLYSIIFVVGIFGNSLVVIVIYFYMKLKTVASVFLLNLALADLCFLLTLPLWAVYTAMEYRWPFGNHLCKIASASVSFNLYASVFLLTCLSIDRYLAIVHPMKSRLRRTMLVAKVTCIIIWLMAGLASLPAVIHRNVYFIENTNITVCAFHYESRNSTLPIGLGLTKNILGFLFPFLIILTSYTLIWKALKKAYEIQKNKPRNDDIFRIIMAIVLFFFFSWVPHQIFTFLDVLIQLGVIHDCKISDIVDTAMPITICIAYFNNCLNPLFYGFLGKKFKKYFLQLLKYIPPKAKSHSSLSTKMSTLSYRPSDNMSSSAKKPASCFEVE
The experiment in a line: Binding affinity for Angiotensin II receptor, type 1 in rat adrenal cortical membranes using [125I]Sar1, Ile8-angiotensin II. It counts as cell membranes.

Assay [3] has as its target T1, Angiotensin II receptor (AT-1) type-1. The assay is described as follows: Binding affinity of compound in presence of bovine serum albumin (BSA) at 0% against rat Angiotensin II receptor, type 1. Format: cell-free.
For assay [4] the target is unchanged. The assay is described as follows: Binding affinity of compound in presence of bovine serum albumin (BSA) at 0.01% against rat Angiotensin II receptor, type 1. It counts as cell-free.
For assay [5] the target is unchanged. The experiment in a line: Binding affinity of compound in presence of bovine serum albumin (BSA) at 0.22% against rat adrenal Angiotensin II receptor, type 1. Format: cell-free.
Assay [6] has the same target. The experiment in a line: Binding affinity of compound in presence of bovine serum albumin (BSA) at 0.01% against rat adrenal Angiotensin II receptor, type 1. Format: cell-free.
The target is the same in assay [7]. The experiment in a line: Binding affinity of compound in presence of bovine serum albumin (BSA) at 0% against rat adrenal Angiotensin II receptor, type 1. It counts as cell-free.

Structures are written as SMILES.

Angiotensin II receptor type 1 (Oryctolagus cuniculus), sequence (P34976 whole entry, looked up): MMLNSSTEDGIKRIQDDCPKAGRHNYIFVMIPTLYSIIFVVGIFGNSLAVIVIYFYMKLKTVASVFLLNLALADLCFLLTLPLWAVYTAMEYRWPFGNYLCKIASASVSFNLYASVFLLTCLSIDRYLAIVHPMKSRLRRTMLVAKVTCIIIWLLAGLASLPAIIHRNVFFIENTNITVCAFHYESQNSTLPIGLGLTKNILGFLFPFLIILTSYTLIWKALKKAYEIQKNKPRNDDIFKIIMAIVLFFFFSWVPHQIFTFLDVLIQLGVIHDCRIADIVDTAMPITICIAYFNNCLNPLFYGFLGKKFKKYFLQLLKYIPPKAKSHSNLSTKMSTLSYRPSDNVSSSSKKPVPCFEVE

Consider `CCCCc1c(Oc2ccc(-c3ccccc3-c3nn[nH]n3)cc2)nc2c(C(=O)O)c(N)ccc2[n+]1[O-]`, for which the Kb – broadly, the affinity of an antagonist, worked out from how it opposes an agonist – in assay [1] is 0.25 nM. Also, in assay [2], the inhibitory constant (Ki) (usually the dissociation constant of the complex between target and ligand, obtained from inhibition or displacement) was 7.4 nM.

As to `CCCCc1c(Oc2ccc(-c3ccccc3-c3nn[nH]n3)cc2)nc2c(C(=O)O)c(F)ccc2[n+]1[O-]`, in assay [1], the antagonist dissociation constant (Kb) was 0.58 nM. Also, in assay [2], the inhibitory constant (Ki) is on record as 9 nM.

As for `CCCCc1c(Oc2ccc(-c3ccccc3-c3nn[nH]n3)cc2)nc2c(C(=O)O)c(OC)ccc2[n+]1[O-]`, the Kb in assay [1] was found to be 0.13 nM. Also, the inhibitory constant (Ki) in assay [2] stood at 17 nM.

In assay [1], `CCCCc1nc2cccc(C(=O)O)c2nc1Oc1ccc(-c2ccccc2-c2nn[nH]n2)cc1` registered a Kb of 2.1 nM. The Ki in assay [2] turned out to be 46 nM; in assay [3], 5.5 nM; in assay [4] it was 46 nM.

As for `Cc1nc2ccccc2nc1Oc1ccc(-c2ccccc2-c2nn[nH]n2)cc1`, the Kb in assay [1] came to 2300 nM.

In assay [1], `CCCc1nc2cccc(C(=O)O)c2nc1Oc1ccc(-c2ccccc2-c2nn[nH]n2)cc1` displayed a Kb of 13 nM. For the same molecule, the Ki in assay [2] is 190 nM.

As for `CCCCc1c(Oc2ccc(-c3ccccc3-c3nn[nH]n3)cc2)nc2c(C(=O)O)cccc2[n+]1[O-]`, in assay [1], the antagonist dissociation constant (Kb) was 0.5 nM.

The molecule `CCCCOc1ccc2c(nc(Oc3ccc(-c4ccccc4-c4nn[nH]n4)cc3)c(CCCC)[n+]2[O-])c1C(=O)O` displayed a Kb in assay [1] of 0.27 nM. The same molecule displayed a Ki in assay [2] of 50 nM.

Molecule `CCCCc1nc2ccccc2nc1Oc1ccc(-c2ccccc2-c2nn[nH]n2)cc1` displayed a Kb in assay [1] of 290 nM. Further, the Ki in assay [5] is 2200 nM; in assay [2], 137 nM.

Turning to `CCCCc1c(Oc2ccc(-c3ccccc3-c3nn[nH]n3)cc2)nc2c(C(=O)O)c(OCC)ccc2[n+]1[O-]`, the antagonist equilibrium constant (Kb) in assay [1] is 0.026 nM. Further, the inhibitory constant (Ki) was 1.3 nM in assay [6], 1.3 nM in assay [2] and 0.4 nM in assay [7].

`CCCCc1c(Oc2ccc(-c3ccccc3-c3nn[nH]n3)cc2)nc2c(C(=O)O)c(OCC(F)(F)F)ccc2[n+]1[O-]` registered a Kb in assay [1] of 2 nM. In assay [2], this molecule displayed an inhibition constant (Ki) of 22 nM.

As to `CCCCc1nc2ccc(F)c(C(=O)O)c2nc1Oc1ccc(-c2ccccc2-c2nn[nH]n2)cc1`, the Kb in assay [1] came to 0.97 nM. This molecule also showed a Ki in assay [2] of 21 nM.

Turning to `CCCCc1c(Oc2ccc(-c3ccccc3-c3nn[nH]n3)cc2)nc2c(C(=O)O)c(OCCC)ccc2[n+]1[O-]`, the antagonist dissociation constant (Kb) in assay [1] stood at 0.19 nM. This molecule also registered a Ki in assay [2] of 68 nM.

Take `Cc1c(Oc2ccc(-c3ccccc3-c3nn[nH]n3)cc2)nc2ccccc2[n+]1[O-]`: the antagonist dissociation constant (Kb) in assay [1] was determined as 480 nM. For the same molecule, the inhibition constant Ki in assay [6] is reported as 550 nM; in assay [5] it was 24400 nM; in assay [2], 550 nM.

In assay [2], `CCCCc1c(Oc2ccc(-c3ccccc3-c3nn[nH]n3)cc2)nc2c(C(=O)O)c(OC(C)C)ccc2[n+]1[O-]` had an inhibition constant (Ki) of 28 nM.

As to `CCCCc1nc2ccccc2[n+]([O-])c1Oc1ccc(-c2ccccc2-c2nn[nH]n2)cc1`, the Kb in assay [1] worked out at 0.44 nM. Besides, the inhibition constant Ki in assay [2] worked out at 4.5 nM.

For the molecule `CCCCc1c(Oc2ccc(-c3ccccc3-c3nn[nH]n3)cc2)nc2ccccc2[n+]1[O-]`, the antagonist dissociation constant (Kb) in assay [1] is 230 nM. Further, the inhibition constant Ki came to 71 nM in assay [6], 580 nM in assay [5] and 71 nM in assay [2].

`CCCCc1nc2ccc(OCC)c(C(=O)O)c2nc1Oc1ccc(-c2ccccc2-c2nn[nH]n2)cc1` gave a Kb in assay [1] of 0.12 nM. The molecule also came in with a Ki in assay [2] of 44 nM.
